Test results from patent US8642788B2, “Activators of executioner procaspases 3, 6 and 7” (The Regents of the University of California, priority 2008, dated 2014).
Like-named read-outs stand apart in the source and are kept apart here.

Columns and labels:
Assay type in all cases: biochemical
procaspase-6 = target: T1, procaspase-6 (Homo sapiens, UniProt P55212); assay: Executioner procaspase-6 activation assay (Ac-VEID-AFC fluorogenic substrate); settings: incubation with compound for 5 h at 37° C.; 100 nM procaspase
T1 sequence (P55212 1-293): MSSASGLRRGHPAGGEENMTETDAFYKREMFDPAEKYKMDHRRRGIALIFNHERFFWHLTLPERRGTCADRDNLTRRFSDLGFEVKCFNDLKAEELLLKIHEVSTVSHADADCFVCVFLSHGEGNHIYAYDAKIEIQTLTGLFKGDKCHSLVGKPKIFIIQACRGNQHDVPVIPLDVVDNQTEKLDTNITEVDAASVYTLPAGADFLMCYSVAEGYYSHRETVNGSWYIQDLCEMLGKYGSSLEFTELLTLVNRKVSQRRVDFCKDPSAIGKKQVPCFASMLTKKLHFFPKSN
Procedure, shortened: (§1)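 Procaspase at 100 nM incubated with compound (100 nM–100 μM) in 50 mM HEPES pH 7.4, KCl, DTT, 0.01% Triton X-100, 3% DMSO, 37 °C for 5 h; then 25 μM Ac-DEVD-AFC (procaspase-7) or Ac-VEID-AFC (procaspase-6), kinetic fluorescence 30 min (ex 365/em 495); EC50 reported.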

procaspase-3 = target: T2, procaspase-3 (Homo sapiens, UniProt P42574); assay: Executioner procaspase-3 activation assay (Ac-DEVD-AFC fluorogenic substrate)
T2 construct: His6 (C); made in house; host or cells: E. coli BL21(DE3)RP, pET-23b
T2 sequence (P42574 1-277): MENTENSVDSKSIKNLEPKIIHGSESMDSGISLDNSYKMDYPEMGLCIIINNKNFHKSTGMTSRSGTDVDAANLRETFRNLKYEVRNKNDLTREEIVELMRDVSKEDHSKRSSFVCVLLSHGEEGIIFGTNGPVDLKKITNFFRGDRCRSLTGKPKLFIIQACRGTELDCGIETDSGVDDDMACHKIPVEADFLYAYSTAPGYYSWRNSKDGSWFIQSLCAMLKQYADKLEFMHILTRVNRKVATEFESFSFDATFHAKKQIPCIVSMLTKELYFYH
Procedure, shortened: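 Procaspase-3 at 100 nM was incubated with activating compounds (100 nM to 100 uM) in 50 mM HEPES pH 7.4, 50 mM KCl, 1 mM DTT and 0.01% Triton-X100, the detergent limiting aggregation artefacts. Protein, substrate and inhibitor were kept as frozen aliquots and thawed just before use.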

procaspase-7 = target: T3, procaspase-7 (Homo sapiens, UniProt P55210); assay: Executioner procaspase-7 activation assay (Ac-DEVD-AFC fluorogenic substrate); settings: incubation with compound for 5 h at 37° C.; 100 nM procaspase
T3 construct: His6 (C); made in house; host or cells: E. coli BL21(DE3)RP, pET-21b
T3 sequence (P55210 1-303): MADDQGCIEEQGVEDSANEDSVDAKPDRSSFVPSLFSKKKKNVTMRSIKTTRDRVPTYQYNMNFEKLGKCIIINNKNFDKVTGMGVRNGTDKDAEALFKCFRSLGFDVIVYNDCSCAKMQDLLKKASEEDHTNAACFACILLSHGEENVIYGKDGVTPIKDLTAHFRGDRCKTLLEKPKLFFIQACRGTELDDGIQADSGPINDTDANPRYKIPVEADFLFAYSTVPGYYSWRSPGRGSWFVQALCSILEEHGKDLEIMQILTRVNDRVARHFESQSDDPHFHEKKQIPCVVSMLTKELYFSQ
Procedure, shortened: as §1

[1] = incubation with compound for 5 h at 37° C., 100 nM procaspase, read-out: Procaspase Activation 3

EC50 (procaspase-6) | EC50 (procaspase-3; [1]) | EC50 (procaspase-7) | Structure (SMILES) | EC50 (procaspase-3)
> 100 µM | 10 to 50 µM | 10 to 50 µM | Cc1noc(C)c1-c1cccc(NC(=O)c2cc3cccc(O)c3oc2=O)c1 [compound 153, 8-Hydroxy-2-oxo-2H-chromene-3-carboxylic acid [3-(3,5-dimethyl-isoxazol-4-yl)-phenyl]-amide] | 
> 100 µM | > 100 µM | > 100 µM | CC(C)(C)OC(=O)n1cccc1-c1cccc(NC(=O)c2cc3cccc(O)c3oc2=O)c1 [compound 173, 2-{3-[(8-Hydroxy-2-oxo-2H-chromene-3-carbonyl)-amino]-phenyl}-pyrrole-1-carboxylic acid tert-butyl ester] | 
> 100 µM | > 100 µM | > 100 µM | COc1ncc(-c2cccc(NC(=O)c3cc4cccc(O)c4oc3=O)c2)cn1 [compound 133, 8-Hydroxy-2-oxo-2H-chromene-3-carboxylic acid [3-(2-methoxy-pyrimidin-5-yl)-phenyl]-amide] | 
> 100 µM | > 100 µM | > 100 µM | N#Cc1ccccc1-c1cccc(NC(=O)c2cc3cccc(OC(F)(F)F)c3oc2=O)c1 [compound 91, 8-Trifluoromethoxy-2-oxo-2H-chromene-3-carboxylic acid (2′-cyano-biphenyl-3-yl)-amide] | 
> 100 µM | > 100 µM | > 100 µM | COc1cccc2cc(C(=O)Nc3cccc(-c4ccccc4NC(C)=O)c3)c(=O)oc12 [compound 96, 8-Methoxy-2-oxo-2H-chromene-3-carboxylic acid (2′-acetylamino-biphenyl-3-yl)-amide] | 
> 100 µM | > 100 µM | > 100 µM | CCOc1ccc(-c2cccc(NC(=O)c3cc4cccc(OC)c4oc3=O)c2)cc1C [compound 66, 8-Methoxy-2-oxo-2H-chromene-3-carboxylic acid (4′-ethoxy-3′-methyl-biphenyl-3-yl)-amide] | 
> 100 µM | > 100 µM | > 100 µM | COc1cccc2cc(C(=O)Nc3cccc(-c4cccn4C(=O)OC(C)(C)C)c3)c(=O)oc12 [compound 174, 2-{3-[(8-Methoxy-2-oxo-2H-chromene-3-carbonyl)-amino]-phenyl}-pyrrole-1-carboxylic acid tert-butyl ester] | 
> 100 µM | > 100 µM | > 100 µM | CCOc1ccc(-c2cccc(NC(=O)c3cc4cccc(O)c4oc3=O)c2)cc1C [compound 65, 8-Hydroxy-2-oxo-2H-chromene-3-carboxylic acid (4′-ethoxy-3′-methyl-biphenyl-3-yl)-amide] | 
> 100 µM | > 100 µM | > 100 µM | COc1ccc(-c2cccc(NC(=O)c3cc4cccc(OC)c4oc3=O)c2)cc1OC [compound 54, 8-Methoxy-2-oxo-2H-chromene-3-carboxylic acid (3′,4′-Dimethoxy-biphenyl-3-yl)-amide] | 
> 100 µM | > 100 µM | > 100 µM | COc1cccc2cc(C(=O)Nc3cccc(-c4ccc(C#N)c(F)c4)c3)c(=O)oc12 [compound 144, 8-Methoxy-2-oxo-2H-chromene-3-carboxylic acid (4′-cyano-3′-fluoro-biphenyl-3-yl)-amide] | 
> 100 µM | > 100 µM | > 100 µM | COc1cccc2cc(C(=O)Nc3cccc(-c4ccccc4C#N)c3)c(=O)oc12 [compound 90, 8-Methoxy-2-oxo-2H-chromene-3-carboxylic acid (2′-cyano-biphenyl-3-yl)-amide] | 
> 100 µM | > 100 µM | > 100 µM | COc1ccc2cc(-c3cccc(NC(=O)c4cc5cccc(OC(F)(F)F)c5oc4=O)c3)ccc2c1 [compound 79, 8-Trifluoromethoxy-2-oxo-2H-chromene-3-carboxylic acid [3-(6-methoxy-naphthalen-2-yl)-phenyl]-amide] | 
0.5 to 10 µM | 0.5 to 10 µM | 50 to 200 µM | O=C(Nc1cccc(-c2ccncc2)c1)c1cc2cccc(O)c2oc1=O [compound 19, 8-Hydroxy-2-oxo-2H-chromene-3-carboxylic acid (3-pyridin-4-yl-phenyl)-amide] | 
> 100 µM | > 100 µM | > 100 µM | COc1ccc(-c2cccc(NC(=O)c3cc4cccc(OC(F)(F)F)c4oc3=O)c2)cc1 [compound 46, 8-Trifluoromethoxy-2-oxo-2H-chromene-3-carboxylic acid (4′-Methoxy-biphenyl-3-yl)-amide] | 
> 100 µM | > 100 µM | > 100 µM | COc1cccc2cc(C(=O)Nc3cccc(-c4cn[nH]c4)c3)c(=O)oc12 [compound 150, 8-Methoxy-2-oxo-2H-chromene-3-carboxylic acid [3-(1H-pyrazol-4-yl)-phenyl]-amide] | 
> 100 µM | > 100 µM | > 100 µM | COc1cccc2cc(C(=O)Nc3cccc(-c4ccccc4OC(F)(F)F)c3)c(=O)oc12 [compound 72, 8-Methoxy-2-oxo-2H-chromene-3-carboxylic acid (2′-trifluoromethoxy-biphenyl-3-yl)-amide] | 
> 100 µM | > 100 µM | 0.5 to 10 µM | COc1ccc(-c2cccc(NC(=O)c3cc4cccc(O)c4oc3=O)c2)cc1 [compound 44, 8-Hydroxy-2-oxo-2H-chromene-3-carboxylic acid (4′-Methoxy-biphenyl-3-yl)-amide] | 
> 100 µM | > 100 µM | > 100 µM | COc1ncc(-c2cccc(NC(=O)c3cc4cccc(OC)c4oc3=O)c2)c(OC)n1 [compound 128, 8-Methoxy-2-oxo-2H-chromene-3-carboxylic acid [3-(2,4-dimethoxy-pyrimidin-5-yl)-phenyl]-amide] | 
> 100 µM | > 100 µM | > 100 µM | O=C(Nc1cccc(-c2ccc3c(c2)OCCO3)c1)c1cc2cccc(O)c2oc1=O [compound 86, 8-Hydroxy-2-oxo-2H-chromene-3-carboxylic acid [3-(2,3-dihydro-benzo[1,4]dioxin-6-yl)-phenyl]-amide] | 
> 100 µM | > 100 µM | > 100 µM | COc1cccc2cc(C(=O)Nc3cccc(-c4cnn(Cc5ccccc5)c4)c3)c(=O)oc12 [compound 170, 8-Methoxy-2-oxo-2H-chromene-3-carboxylic acid [3-(1-benzyl-1H-pyrazol-4-yl)-phenyl]-amide] | 
> 100 µM | > 100 µM | > 100 µM | COc1ccc(-c2cccc(NC(=O)c3cc4cccc(OC(F)(F)F)c4oc3=O)c2)cc1C [compound 49, 8-Trifluoromethoxy-2-oxo-2H-chromene-3-carboxylic acid (4′-Methoxy-3′-methyl-biphenyl-3-yl)-amide] | 
> 100 µM | > 100 µM | > 100 µM | COc1cccc2cc(C(=O)Nc3cccc(-c4ccc(F)c(C#N)c4)c3)c(=O)oc12 [compound 146, 8-Methoxy-2-oxo-2H-chromene-3-carboxylic acid (3′-cyano-4′-fluoro-biphenyl-3-yl)-amide] | 
> 100 µM | > 100 µM | > 100 µM | COc1cncc(-c2cccc(NC(=O)c3cc4cccc(OC)c4oc3=O)c2)c1 [compound 132, 8-Methoxy-2-oxo-2H-chromene-3-carboxylic acid [3-(5-methoxy-pyridin-3-yl)-phenyl]-amide] | 
> 100 µM | > 100 µM | > 100 µM | COc1ccc(OC)c(-c2cccc(NC(=O)c3cc4cccc(OC)c4oc3=O)c2)c1 [compound 57, 8-Methoxy-2-oxo-2H-chromene-3-carboxylic acid (2′,5′-dimethoxy-biphenyl-3-yl)-amide] | 

Structure (SMILES) | EC50 (procaspase-6) | EC50 (procaspase-3; [1]) | EC50 (procaspase-7) | EC50 (procaspase-3)
O=C(Nc1cccc(-c2ccc3[nH]ccc3c2)c1)c1cc2cccc(O)c2oc1=O [compound 92, 8-Hydroxy-2-oxo-2H-chromene-3-carboxylic acid (3-(1H-Indol-5-yl)-phenyl)-amide] | > 100 µM |  | > 100 µM | > 100 µM
COc1cccc2cc(C(=O)Nc3cccc(-c4ccc5[nH]ccc5c4)c3)c(=O)oc12 [compound 93, 8-Methoxy-2-oxo-2H-chromene-3-carboxylic acid (3-(1H-Indol-5-yl)-phenyl)-amide] | > 100 µM |  | > 100 µM | > 100 µM
